One assay has as its target T1, AR (Homo sapiens, UniProt P10275).
T1 sequence (P10275 1-920): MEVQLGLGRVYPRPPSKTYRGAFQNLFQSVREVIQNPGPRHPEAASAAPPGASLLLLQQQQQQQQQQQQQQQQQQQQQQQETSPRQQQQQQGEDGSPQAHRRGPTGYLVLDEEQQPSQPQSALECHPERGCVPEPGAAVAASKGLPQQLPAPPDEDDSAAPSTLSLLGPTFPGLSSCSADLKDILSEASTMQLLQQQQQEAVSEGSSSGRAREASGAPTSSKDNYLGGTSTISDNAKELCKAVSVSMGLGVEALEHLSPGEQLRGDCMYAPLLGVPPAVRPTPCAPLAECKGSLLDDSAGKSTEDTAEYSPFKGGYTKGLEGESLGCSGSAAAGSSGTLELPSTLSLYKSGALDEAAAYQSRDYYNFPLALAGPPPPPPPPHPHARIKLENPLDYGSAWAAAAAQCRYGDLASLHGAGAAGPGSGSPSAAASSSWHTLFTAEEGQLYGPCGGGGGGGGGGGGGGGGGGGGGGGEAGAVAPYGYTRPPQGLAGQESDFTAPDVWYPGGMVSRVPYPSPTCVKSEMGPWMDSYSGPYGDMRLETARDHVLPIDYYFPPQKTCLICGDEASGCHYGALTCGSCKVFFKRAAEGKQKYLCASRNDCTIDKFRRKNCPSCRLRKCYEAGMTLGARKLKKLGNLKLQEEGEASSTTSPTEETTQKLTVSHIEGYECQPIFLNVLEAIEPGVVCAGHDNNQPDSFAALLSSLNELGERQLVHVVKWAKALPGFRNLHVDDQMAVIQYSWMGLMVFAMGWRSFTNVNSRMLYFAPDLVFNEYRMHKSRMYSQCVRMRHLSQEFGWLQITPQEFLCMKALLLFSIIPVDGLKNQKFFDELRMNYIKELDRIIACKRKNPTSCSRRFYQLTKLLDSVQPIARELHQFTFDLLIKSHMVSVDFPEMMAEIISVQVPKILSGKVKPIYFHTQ
The conditions noted are these: cited from earlier work.

A further assay concerns GAR15-13 PDX. Kind of assay: GAR15-13 palbociclib-resistant PDX in NSG mice. The conditions noted are these: mouse, in vivo. The text has this:
Data were presented as mean values±s.e.m. […] Data represented the mean±s.e.m. of four replicate cell culture wells per condition. […] P values are indicated by gray asterisks, where ****P<0.0001 for all highlighted comparisons.
Tissue samples from an ER-positive, PR-negative, and HER2-negative (ER^+, PR^−, HER2^−) patient that progressed on (i.e., was resistant to) palbociclib were implanted into animal (NSG mice) models and grown as a patient-derived xenograft (PDX). […] This human tumor model also had amplification of the cyclin D1 (CCND1^Amp) gene which has been implicated as a driver of therapeutic resistance to CDKi. […] This is also observed in other models tested in vitro including a palbociclib resistant MCF-7 (MCF7 palbo^R) line (FIG. 44B).

Another assay concerns HCI-13 tumors. As to the kind of experiment: Phospho-proteomics of HCI-13 PDX tumors. Details: species or system mice. The settings on record: mouse, in vivo. The method, then: Whole tissue lysates were directly prepared from the tissue sections using a 1:1 mixture of T-PER (Tissue Protein Extraction Reagent; Pierce, Rockford, Ill.) and 2× Tris-Glycine SDS Sample Buffer (Invitrogen, Carlsbad, Calif.) supplemented with 5% 2-mercaptoethanol. Samples were boiled for 8 minutes and stored at −80° C. until arrayed.
Samples and standard curves for internal quality assurance were printed onto nitrocellulose-coated slides (Grace Bio-labs, Bend, Oreg.) using an Aushon 2470 arrayer (Aushon BioSystems, Billerica, Mass.). Selected arrays were used to estimate the amount of protein in each sample using a Sypro Ruby Protein Blot Stain (Molecular Probes, Eugene, Oreg.) protocol following manufacturer's instructions (Pin et al. (2014) Curr Protoc Prtein Sci 75, Unit 27 27). Remaining arrays were tested with a single primary antibody using an automated system (Dako Cytomation, Carpinteria, Calif.) as previously described (Baldelli et al. (2015) Oncotarget 6, 32368-32379). Arrays were first incubated with Reblot Antibody stripping solution (Chemicon, Temecula, Calif.), followed by two washes in PBS, and I-block solution (Tropix, Bedford, Mass.) for 4 hours. Arrays were probed with a total of 174 antibodies targeting a wide range of protein kinases and their activation via phosphorylation. Antibodies specificity was tested using standard immunoblotting on a panel of cell lysates. […]
The commercially available Signal Amplification System (CSA; Dako Cytomation) and a streptavidin-conjugated IRDye 680 secondary antibody (LI-COR Biosciences, Lincoln, Nebr.) were used as signal detection methods. Images were acquired on the laser-based PowerScanner (TECAN, Mönnedorf, Switzerland), and data were analyzed using the MicroVigene software Version 5.1 (Vigene Tech, Carlisle, Mass.) as previously described (Baldelli et al. (2015) Oncotarget 6, 32368-32379). […]

The next assay deals with AR-LBD (Homo sapiens, UniProt P10275). Kind of assay: Competitive radioligand binding with [3H]MIB. The conditions noted are these: DHT = 1.0.

SMILES strings stand for the structures.

In the case of `C[C@](O)(COc1ccc(C#N)cc1)C(=O)Nc1ccc(C#N)c(C(F)(F)F)c1` [Formula IX, (S)—N-(4-Cyano-3-(trifluoromethyl)phenyl)-3-(4-cyanophenoxy)-2-hydroxy-2-methylpropanamide], the “concentration at which it binds to and activates the AR” value on AR was “less than 10 nM”. Also, in the assay with GAR15-13 PDX, the tumor growth response entry is “responsive”. In the assay on HCI-13 tumors, the “expression of proliferation marker Ki67” value is reported as “inhibited the expression”; the “phosphorylation of oncogenic proteins (pERK, PKC z, RSK3, Ezrin, BCL2, ELF4G, ER)” value is listed as “inhibited the phosphorylation”; the “phosphorylation of tumor suppressor proteins (p53, p27, ACC, AR)” value is “increased the phosphorylation”.
`C[C@](O)(COc1ccc(C#N)cc1)C(=O)Nc1ccc(C#N)c(Cl)c1` [Formula VIII, (S)—N-(3-chloro-4-cyanophenyl)-3-(4-cyanophenoxy)-2-hydroxy-2-methylpropanamide]: the “relative binding affinities (RBAs) for AR” value at AR-LBD was determined as 0.314.

The values are drawn from patent publication US20220257552A1, “METHODS OF PRESCREENING AND TREATING BREAST CANCERS WITH SELECTIVE ANDROGEN RECEPTOR MODULATORS” (priority 2021, published 2022).
